“Also recorded” adds a separate entry of the source.
What was measured:
Format in all cases: cell-based
BRD4 [1] = target: T1, BRD4 (Homo sapiens, UniProt O60885); assay: Summary of BRD4 degradation by CURE-PRO pairs, estimated from Western Blot or WES (Proteinsimple); parameters: endogenous in cells; details: for Degradation of BRD4 in combination with CRBN ligand [drawing 371] / Degradation of BRD4 in combination with CRBN ligand [drawing 372] / Degradation of BRD4 in combination with CRBN ligand [drawing 370]: Table 1; for Degradation of BRD4 in combination with CRBN ligand [drawing 371]: second drawing (8047); for Degradation of BRD4 in combination with CRBN ligand [drawing 372]: third drawing (8066); for Degradation of BRD4 in combination with CRBN ligand [drawing 370]: aromatic 1,2-diol- or hindered cis-1,2-diol-containing CRBN ligand, first drawing (8046)
Source text: A black check mark indicates efficacy of 30% to 70% or higher protein degradation.

BRD4 [2] = target: T1, BRD4; assay: CURE-PRO-mediated BRD4 degradation, Western blot, HeLa cells; parameters: endogenous in cells; host or cells: HeLa; details: 24 h; for BRD4 degradation, BRD ligand alone: BRD monomer alone; for BRD4 degradation, co-treatment with CRBN ligand 8046: 1:1 with 8046, 10 μM each; for BRD4 degradation, co-treatment with CRBN ligand 8066: 1:1 with 8066, 10 μM each (BRD-E10: 10 and 100 μM)
Protocol: (§1) All cell lines were purchased from ATCC or DSMZ and grown at 37° C. with 5% CO2. Human HeLa cells were cultured in complete growth medium (Dulbecco's modified Eagle's medium (DMEM) supplemented with 10% FBS); MCF7 cells were cultured in complete growth medium (Dulbecco's modified Eagle's medium (DMEM) supplemented with 10% FBS and 0.01 mg/ml human recombinant insulin (Sigma Aldrich); Namalwa and MOLM-13 cells were cultured in complete growth medium (RPMI 1640 medium supplemented with 10% FBS); MV-4-11 were cultured in complete growth medium (Iscove's Modified Dulbecco's medium, supplemented with 10% FBS); HCT116 cells were cultured in complete growth medium (McCoy's 5a Medium supplemented with 10% FBS). For cellular degradation of BRD4 studies, cells were seeded in a 12-well plate at 70-80% confluency, allowed to attach overnight, and incubated with the indicated compounds for the indicated time. When indicated, a 15-minute pretreatment with 10 μM pomalidomide, 10 μM VHL298, 10 μM Nutlin3a, 1 μM MG-132 or 1 μM Carfilzomib was performed before the addition of CURE-PROs. For washout studies, after CURE-PRO treatment, media was aspirated and incubated with complete medium for the indicated time before lysis.
Anti-BRD4 (13440, 1:1,000 dilution for Western Blot and 1:25 dilution for ProteinSimple); Anti-BRD2 (5848 1:1,000 dilution for Western Blot and 1:25 dilution for ProteinSimple); β-Actin (3700, 1:2,000 dilution for Western Blot), β-Actin (4970, 1:50 dilution for ProteinSimple) anti-mouse IgG-HRP, and anti-rabbit IgG-HRP antibodies were purchased Cell Signaling Technology. Anti-GAPDH (600-401-A33, 1:100 dilution for ProteinSimple) was purchased from Rockland Immunochemicals, Inc. Anti-BRD3 (sc-81202, 1:200 dilution for Western Blot) was purchased from Santa Cruz Biotechnology.
HeLa, MCF7, or HCT116 cells (2.5-3×10^6) were treated for 24 hours with the indicated compounds solubilized in DMSO. The cells were washed in ice-cold PBS and were then lysed in RIPA lysis buffer (150 mM NaCl, 5 mM EDTA, 1% NP-40, 0.5% sodium deoxycholate, 0.1% SDS, 50 mM Tris, pH 8.0.) with Roche protease inhibitor complete cocktail and phosphatase inhibitors (10 mM sodium fluoride, 10 mM sodium pyrophosphate, 1 mM sodium orthovanadate and 20 mM β-glycerophosphate). The total protein concentrations were determined by Bradford Protein Assay and 10-20 μg of protein was loaded onto 4-15% Tris-Glycine gradient gels (Biorad). After standard gel electrophoresis, the separated proteins were transferred to PVDF membrane by wet transfer. The immunoblots were then blocked for 1 hour in 5% skim milk in TBST or 5% BSA in TBST, according to manufacturer's instructions, before an overnight incubation at 4° C. with indicated antibodies and membranes. Membranes were then incubated with the appropriate horseradish peroxidase-conjugated secondary antibodies (1:5,000 dilution) for 1 h at room temperature and the bands were visualized using the Clarity Max Western ECL Substrate (Biorad) and the ChemiDoc Imaging System (Biorad). Signal was detected with ECL Western Blotting Substrate (Pierce) and X-ray film processed with a Konica SRX-101 X-ray film processor or captured by Bio-Rad's Chemidoc Imaging system.
HeLa cells (2.5×106) were treated for 24 hours with the sample compounds solubilized in DMSO. Compounds were added at 1-10 μM each. Standardized protein samples were electrophoresed and imaged as described in the immunoblotting description above. FIGS. 6-18 depicts the CURE-PRO-mediated BRD4 degradation for BRD monomers (JQ1 derivatives comprising of catechol linkers), and CRBN ligands, 8048 and 8049 (pomalidomide derivatives comprising boronic acid linkers) combined in a 1:1 ratio.
HeLa cells (2.5×106) were treated for 24 hours with the compounds solubilized in DMSO. The compounds were added at 10 μM each. Standardized protein samples were electrophoresed and imaged as described in the immunoblotting section above. […]

BRD4 [3] = target: T1, BRD4; assay: CURE-PRO-mediated BRD4 degradation with MDM2 ligands, WES (ProteinSimple), HCT116 cells; parameters: endogenous in cells; details: HCT116, 24 h, WES; for BRD4 degradation, in combination with MDM2 ligand 8314: 1:1 with 8314, 1-10 μM each; for BRD4 degradation, in combination with MDM2 ligand 8313: 1:1 with 8313, 1-10 μM each
Protocol: as §1
(§2) WES Simple analysis was performed on WES system (ProteinSimple-Biotechne) according to the manufacturer's instructions. Total protein concentrations of cell lysates were determined by the Pierce BCA kit (Thermo Fisher). 3 μL of 0.3 μg/μL of the protein lysate was loaded onto a 12- to 230-kDa WES assay plate (ProteinSimple) where 300 nL sample was withdrawn through a capillary, subjected to electrophoretic separation of proteins by size, and followed by the simultaneous, HRP-based detection of proteins using the Anti-Rabbit Detection Module (Proteinsimple: #DM-001). The electropherograms were checked then the automatic peak detection was manually corrected if it was required.
(§3) HCT116 cells (3×10^6) were treated for 24 hours with the compounds solubilized in DMSO. Compounds were added at 1 μM-10 μM each. Standardized protein samples were electrophoresed and imaged as described in the WES ProteinSimple section above. FIGS. 59, 60, and 61 depict the concentration-dependence of CURE-PRO-mediated BRD4 degradation using MDM2 ligands.
as §3, with “62” for “59, 60,”, “63” for “61”
(§4) HCT116 cells (3×10^6) were treated for 24 hours with the compounds solubilized in DMSO. CURE-PRO monomers were added at 10 μM each and the proteasomal inhibitors at 1 μM. Standardized protein samples were electrophoresed and imaged as described in the WES ProteinSimple section above. FIG. 68 depicts the dependence of the proteasome for CURE-PRO-mediated BRD4 degradation.

BRD4 [4] = target: T1, BRD4; assay: CURE-PRO-mediated BRD4 degradation with VHL ligands, WES (ProteinSimple), MCF7 cells; parameters: endogenous in cells; details: MCF7, equimolar final concentrations (10 μM)
Protocol: as §1, §2
MCF7 cells (3×10^6) were treated for 4-24 hours continually (FIG. 72), or treated for 4h, washed and incubated for a further 4-24 h with the compounds solubilized in DMSO. Compounds were added at 10 μM each. Cells were washed, lysed, and clarified by centrifugation. The total protein concentration was quantified by the BCA method (ThermoFisher Sciences). Standardized protein samples were electrophoresed and imaged as described in the WES Proteinsimple section above. FIG. 69 depicts the CURE-PRO-mediated BRD4 degradation for the BRD-E50 monomer, and VHL ligand, 8305.
as §4, with “MCF7” for “HCT116”, “Proteinsimple” for “ProteinSimple”, “FIGS. 73 and 75” for “FIG. 68”
MCF7 cells (3×10^6) were treated for 24 hours with the compounds solubilized in DMSO. CURE-PRO monomers were added at 10 μM. FIG. 74 depicts the CURE-PRO-mediated BRD4 degradation for the BRD-E50 monomer, and VHL ligand, 8305 combined in a 1:1 ratio after 24 h.

Structure (SMILES) | Degradation of BRD4 in combination with CRBN ligand [drawing 371] (BRD4 [1]) | BRD4 degradation, in combination with MDM2 ligand 8314 (BRD4 [3]) | BRD4 degradation, BRD ligand alone (BRD4 [2]; Western blot) | BRD4 degradation, in combination with MDM2 ligand 8313 (BRD4 [3]) | Degradation of BRD4 in combination with CRBN ligand [drawing 372] (BRD4 [1]) | Degradation of BRD4 in combination with CRBN ligand [drawing 370] (BRD4 [1]) | BRD4 degradation, co-treatment with CRBN ligand 8046 (BRD4 [2]; Western blot) | BRD4 degradation, co-treatment with CRBN ligand 8066 (BRD4 [2]; Western blot) | also measured
COc1ccc2c(c1)C(c1ccc(Cl)cc1)=N[C@@H](CC(=O)NCCc1ccc(B(O)O)cc1)c1nnc(C)n1-2 [BRD-E14, (4-(2-(2-((4S)-6-(4-chlorophenyl)-8-methoxy-1-methyl-4H-benzo[f][1,2,4]triazolo[4,3-a][1,4]diazepin-4-yl)acetamido)ethyl)phenyl)boronic acid] | ✓ (A black check mark indicates efficacy of 30% to 70% or higher protein degradation) | caused partial loss of the BRD4 protein; also recorded: Degradation is observed |  |  |  |  |  |  | Degradation of BRD4 in combination with VHL ligand [drawing 397] (BRD4 [1]; Table 3, aromatic 1,2-diol-containing VHL ligand, second drawing (8305)): ✓ (A black check mark indicates efficacy of 30% to 70% or higher protein degradation); BRD4 degradation, co-treatment with CRBN ligand 8047 (BRD4 [2]; 1:1 with 8047, 10 μM each, Western blot): causes degradation of BRD4; also recorded: Degradation is noted
CCNC(=O)C[C@@H]1N=C(c2ccc(Cl)cc2)c2cc(OCCNC(=O)c3cccc(B(O)O)c3)ccc2-n2c(C)nnc21 [BRD-E21, (3-((2-(((4S)-6-(4-chlorophenyl)-4-(2-(ethylamino)-2-oxoethyl)-1-methyl-4H-benzo[f][1,2,4]triazolo[4,3-a][1,4]diazepin-8-yl)oxy)ethyl)carbamoyl)phenyl)boronic acid] | ✓ (A black check mark indicates efficacy of 30% to 70% or higher protein degradation) | caused partial loss of the BRD4 protein; also recorded: Degradation is observed | no change in expression | had no effect on BRD4 protein levels |  |  |  |  | Concentration from which BRD4 degradation is observed, co-dosed with 8047 (BRD4 [2]; 1:1 with 8047, tested 1 nM-1 μM each): ≥ 10 nM
COc1ccc2c(c1)C(c1ccc(Cl)cc1)=N[C@@H](CC(=O)NCCCCCNC(=O)c1cccc(B(O)O)c1)c1nnc(C)n1-2 [BRD-E8] |  | caused partial loss of the BRD4 protein; also recorded: Degradation is observed | no change in expression | had no effect on BRD4 protein levels | ✓ (A black check mark indicates efficacy of 30% to 70% or higher protein degradation) | ✓ (A black check mark indicates efficacy of 30% to 70% or higher protein degradation) | causes degradation of BRD4; also recorded: Degradation is noted | causes degradation of BRD4; also recorded: Degradation is noted | Concentration at which BRD4 degradation is observed, co-dosed with 8046 (BRD4 [2]; 1:1 with 8046): 1 µM; Concentration at which BRD4 degradation is observed, co-dosed with 8046 (BRD4 [2]; 1:1 with 8046, tested 1 nM-1 μM each): 0.1 µM
CCNC(=O)C[C@@H]1N=C(c2ccc(Cl)cc2)c2cc(OCCCCCCNC(=O)c3ccc(B(O)O)cc3)ccc2-n2c(C)nnc21 [BRD-E79, (4-((6-(((4S)-6-(4-chlorophenyl)-4-(2-(ethylamino)-2-oxoethyl)-1-methyl-4H-benzo[f][1,2,4]triazolo[4,3-a][1,4]diazepin-8-yl)oxy)hexyl)carbamoyl)phenyl)boronic acid] | ✓ (A black check mark indicates efficacy of 30% to 70% or higher protein degradation) | no protein loss was observed | no change in expression | caused BRD4 protein degradation at 1 and 10 μM; also recorded: Degradation of BRD4 is observed | ✓ (A black check mark indicates efficacy of 30% to 70% or higher protein degradation) | ✓ (A black check mark indicates efficacy of 30% to 70% or higher protein degradation) | causes degradation of BRD4; also recorded: Degradation is noted | causes degradation of BRD4; also recorded: Degradation is noted | 
COc1ccc2c(c1)C(c1ccc(Cl)cc1)=N[C@@H](CC(=O)NCCNC(=O)Cc1ccc(O)c(O)c1)c1nnc(C)n1-2 [BRD-N30] |  |  | no degradation of BRD4 |  |  |  |  |  | Degradation of BRD4 in combination with CRBN ligand [drawing 407] (BRD4 [1]; Table 4, aryl-boronic acid-containing CRBN ligand, first drawing (by text: 8048)): ✓ (A black check mark indicates efficacy of 30% to 70% or higher protein degradation); BRD4 degradation, co-treatment with CRBN ligand 8048 (BRD4 [2]; 1:1 with 8048, 1-10 μM each, Western blot): causes degradation of BRD4
Cc1ncsc1-c1ccc(CNC(=O)[C@@H]2C[C@@H](O)CN2C(=O)[C@@H](NC(=O)C2(C#N)CC2)C(C)(C)C)cc1 [VHL298] |  |  |  |  |  |  |  |  | Inhibition of BRD-E50 + 8305 mediated BRD4 degradation by preincubation (BRD4 [4]): attenuates CURE-PRO mediated BRD4 degradation; also recorded: inhibited CURE-PRO mediated degradation; also recorded: inhibits the degradation of BRD4
